Source: patent US6589991B1, “Therapeutic methods employing disulfide derivatives of dithiocarbamates and compositions useful therefor” (Medinox, Inc., priority 1998, dated 2003)
Entries after “also recorded” stand apart in the source; their conditions may differ.

Legend:
[1] = cited from earlier work
[2] = Stability at pH 1 / stomach acid; assay type: physicochemical
[3] = Conversion of the dithiocarbamate disulfide to the monomer by L-cysteine (UV spectrum); assay type: physicochemical; conditions: L-cysteine 5 mg/mL in 60 mM HEPES pH 7.4; disulfide 20 μg/mL; UV 190-340 nm
Method: FIG. 2 is an illustration of the UV spectrum of N-methyl-D-glucamine dithiocarbamate disulfide (MGDD) (20 μg/mL)in the presence of L-cysteine (5 mg/mL). The spectrum was recorded with a scan range of 190 nm to 340 nm.
FIG. 10 is an illustration of the UV spectrum measured on Hewlett Packard 8451A Diode Array Spectrophotometer. Scanning wavelength 190 nm-340 nm. One mL freshly prepared solution of L-cysteine (5 mg/mL) in 60 mM HEPES buffer, pH=7.4 is transferred into the UV cell (cell length 1 cm) plus 1 μl acetone and the absorbance of this solution is measured as a background. Added 1 μl stock solution of Pyrrolidine dithiocarbamate disulfide (PDD) in acetone to the cuvette—final concentration of PDD is 20 μg/mL. After mixing the UV spectrum is measured immediately.
A freshly prepared solution of L-cysteine (5 mg/mL) in 60 mM HEPES buffer, pH 7.4 was transferred into a UV cell (cell length 1cm) plus 1 μl acetone and the absorbance of this solution was recorded as background. Immediately after the addition of Pyrrolidine dithiocarbamate disulfide (PDD) (final concentration of 20 μg/mL), the spectrum was recorded with a scan range of 190 nm to 340 nm.

[4] = assay type: physicochemical; conditions: KCN in water; UV spectrum recorded immediately after mixing
diabetic-prone BB rats = test system: diabetic-prone BB rats
Method: FIG. 4 is a graph illustrating the effects of oral administration of L-proline dithiocarbamate on the survival of diabetic-prone BB rats. The percentage of survival was plotted against the age of the animals over 125 days. The treated group (n=30) (▪) received 5 mg/ml monomeric L-proline dithiocarbamate in drinking water, while the untreated group (n=31) (□) received only water.
We tested the effectiveness of the oral administration of (L-PD) for the treatment of diabetic-prone BB rats, an animal model that is widely used for type I insulin-dependent diabetes. Type I diabetes is an autoimmune disease. the pathogenesis of this disease remains unclear although there is ample evidence for increased NO production at early stages of the disease (see, for example, G. M. Piper, Hypertension, 31: 1047-1060, 1998).
Male, diabetic-prone BB rats (n=61, 250-280 g) were used for the study. The rats were distributed between untreated and L-PD treated groups. The treated group received 5 mg/ml L-PD in drinking water. The treatment started when the animals were 2 months old and continued until they were 4 months old. […] Percent survival was calculated by Product-Limit Survival Analysis Generalized Savage (Mantel-Cox) with p<0.01.

Lewis rats = conditions: 10 mg/ml in drinking water; scored 0-6 from day 6; n=9
Method: The test rats (▪) were given L-PD in drinking water (10 mg/ml). Control rats ([formula]) received only distilled water for drinking. Beginning on day 6, the left foot of the animals was scored for the development of arthritic disease using the following system: 0=no redness or inflammation, 1=one area of redness or inflammation on the foot less than 2 mm in diameter, 3=partial redness/inflammation of the footpad, 4=all of footpad red or inflamed, 5=criteria of 4 plus at least one toe red or inflamed, and 6=criteria of 4 plus toes inflamed and deformed (toes curling under footpad).
After the subcutaneous injection in the right footpad of a suspension in mineral oil of heat killed M. tuberculosis on day 1, the Lewis rats were separated into two groups (n=9); one given L-PD (10 mg/ml) in the drinking water and the other given only distilled water. Beginning on day 6, the left foot of the animals was scored for the development of arthritic disease using the following system: 0=no redness or inflammation, 1=one area of redness or inflammation on the foot less than 2 mm in diameter, 3=partial redness/inflammation of the footpad, 4=all of footpad red or inflamed, 5=criteria of 4 plus at least one toe red or inflame, d, and 6=criteria of 4 plus toes inflamed and deformed (toes curling under footpad).

S=C(S)N1CCCC1 [Pyrrolidine dithiocarbamate]
stability in the presence of stomach acid [1]: breaks down to ineffective species

S=C(SSC(=S)N1CCCC1)N1CCCC1 [PDD, Pyrrolidine dithiocarbamate disulfide]
time stable at pH 1 [2]: ≤ 24 hours
conversion to the monomeric dithiocarbamate on addition of L-cysteine [3]: readily be converted into its starting material, pyrrolidine dithiocarbamate
reaction with potassium cyanide [4]: fast reaction

CN(C[C@H](O)[C@@H](O)[C@H](O)[C@H](O)CO)C(=S)SSC(=S)N(C)C[C@H](O)[C@@H](O)[C@H](O)[C@H](O)CO [MGDD, N-methyl-D-glucamine dithiocarbamate disulfide]
conversion to the monomeric dithiocarbamate on addition of L-cysteine [3]: readily be converted into its starting material, MGD; also recorded: identical to that of N-methyl-D-glucamine dithiocarbamate
reaction with potassium cyanide [4]: fast reaction

NC(=S)S.O=C(O)[C@@H]1CCCN1 [L-PD, L-proline dithiocarbamate]
animals surviving at the end of the experiments (diabetic-prone BB rats; 5 mg/ml in drinking water for 2 months (age 2 to 4 months), untreated 10 percent, p<0.01): more than 30%
improvement in survival compared to the untreated group (diabetic-prone BB rats; 5 mg/ml in drinking water, n=30, over 125 days): statistically significant
effect on water consumption (diabetic-prone BB rats; chronic treatment, 5 mg/ml in drinking water): no apparent effect
severity score of the inflammation in the left footpad (Lewis rats): significantly reduced
